# Experimental data as given in publication PMC3581553, “New Approaches of PARP-1 Inhibitors in Human Lung Cancer Cells and Cancer Stem-Like Cells by Some Selected Anthraquinone-Derived Small Molecules” (PLoS ONE, 2013).
# Where two headings read alike, the source gives them in different places.
# Tests used:
# HOP-92 = experiment: NCI-60 drug screen (SRB), NSCLC line HOP-92; format: cell-based, human; details: for GI50 / CC50: Homo sapiens; for CC50: read-out: LC50 (the source's name)
# Procedure: (§1) As a primary screening, seven selected compounds were submitted to the National Cancer Institute (NCI) cell lines screen for evaluation of their anticancer activity. From the data analysis, it follows that approximately 95% of the actives from the 60 cell lines screen can be identified. The detailed methods used for the 60 cell lines panel have been described elsewhere [54]–[59]. Briefly, cellular protein levels were determined after 48 hours of drug exposure by SRB colorimetry. Through the use of a time zero cell control, the cell growth can be determined for each cell line thus allowing calculations of GI50, TGI, and LC50. Comparison to plates not exposed to drug permits determination of concentration and times of exposure conferring GI50, TGI, and LC50. […] By these criteria, seven compounds reported from our compounds bank were all active and passed on for evaluation in the full panel of 60 human tumor cell lines. The panel is organized into nine subpanels representing diverse histology: leukemia, melanoma, and cancers of the lung, colon, kidney, ovary, breast, prostate, and central nervous system.
# HOP-62 = experiment: NCI-60 drug screen (SRB), NSCLC line HOP-62; format: cell-based, human; details: for GI50 / CC50: Homo sapiens; for CC50: read-out: LC50 (the source's name)
# Procedure: as §1
# [1] = tested on: PARP-1 mRNA expression in A3 cells; experiment: Quantitative RT-PCR of PARP-1 in treated A3 cells; format: cell-based, human
# From the text: RNA was isolated from cells with the TRIzol (Invitrogen) reagent […], and this was followed by RNA clean up with the RNeasy Minikit (QIAGEN). cDNA was produced with the First Strand cDNA Synthesis Kit (Roche). Real-time quantitative PCR reactions were set up in triplicate with the Brilliant II SYBR Green QPCR Master Mix (Stratagene) and run on an Mx3000P QPCR System (Stratagene).
# A3 clone = experiment: Sphere formation and cell viability assay in A3 clone; format: cell-based, human; details: treated A3 clone; for sphere formation: serum free medium with bFGF and EGF (10 ng/ml)
# NCI-60 cancer cell lines = experiment: NCI-60 panel of human tumor cell lines, median GI50; format: cell-based; details: median over NCI-60 cancer cell lines, read-out: median 50% growth inhibitory concentration (GI50)
# Procedure: as §1
# [2] = 48 hours drug exposure, SRB, read-out: GI50
# [3] = NCI in vitro 60-cell lines Drug Screen, read-out: -Log GI50 (converted)
Structure (SMILES),"TGI (HOP-92; 48 hours drug exposure, SRB) [µM]",GI50 (HOP-92; [2]) [µM],"CC50 (HOP-92; 48 hours drug exposure, SRB) [µM]",GI50 (HOP-92; [3]) [µM],"TGI (HOP-62; 48 hours drug exposure, SRB) [µM]",GI50 (HOP-62; [2]) [µM],"CC50 (HOP-62; 48 hours drug exposure, SRB) [µM]",GI50 (HOP-62; [3]) [µM],expression levels of PARP-1 (mRNA) [1],cell growth / cell viability (A3 clone),sphere formation (A3 clone),GI50 (NCI-60 cancer cell lines) [µM]
CN(C)CC(=O)Nc1ccc2c(c1)C(=O)c1cc(NC(=O)CN(C)C)ccc1C2=O [NSC746364],31.7,10.4,96.6,10.5,20.5,4.56,60.8,4.57,,,,
CN1CCN(Cc2nc3ccc4c(c3[nH]2)C(=O)c2ccccc2C4=O)CC1 [NSC749235],91.8,7.97,> 100,7.94,30.5,19.4,95.4,9.33,inhibit the expression levels of PARP-1,inhibit the cell growth,effectively block the sphere formation,
O=C(CCN1CCCC1)Nc1ccc2c(c1)C(=O)c1cc(NC(=O)CCN3CCCC3)ccc1C2=O [NSC746366],0.82,0.45,34.6,0.447,11.6,2.48,45.4,2.51,,,,
CN(C)CCCSc1nc2ccc3c(c2[nH]1)C(=O)c1ccccc1C3=O [NSC747854],,,,,32.3,5.9,48.9,5.89,inhibit the expression levels of PARP-1,inhibit the cell growth,effectively block the sphere formation,6.92
Cc1ccc(C(=O)Nc2c(NC(=O)CCl)ccc3c2C(=O)c2ccccc2C3=O)cc1 [NSC749232],31.7,9.73,> 100,9.77,9.49,2.97,24.4,2.95,inhibit the expression levels of PARP-1,inhibit the cell growth,effectively block the sphere formation,
CCN(CC)CCC(=O)Nc1ccc2c(c1)C(=O)c1cc(NC(=O)CCN(CC)CC)ccc1C2=O [NSC746365],0.06,0.01,3.48,0.0148,5.80,1.73,24,1.74,,,,
